The results in this text go back to patent US20250295665A1, “SELECTIVE K-RAS INHIBITORS FOR THE ENHANCEMENT OF ADOPTIVE IMMUNOTHERAPIES” (H. LEE MOFFITT CANCER CENTER AND RESEARCH INSTITUTE INC., priority 2022, published 2025).

For test [1], the system named is CT26-G12C colon cancer cells. In kind it is in vivo, mouse. On the procedure: CT26-G12C colon cancer cells were SC. Implanted in BALB/C mice, and left to develop SC. Tumors for 20 days, then treated with oral gavage of 3 mg/kg/mouse TRA or 30 mg/kg/mouse AMG-510 for 6 days alone or for 20 days with anti-PD1 Ab (IP 200 μg/mouse twice a week). Tumor size was measured till mice being sacrificed. tumors were collected and stained for T cell, and Myeloid cell markers mouse antibodies (anti-CD45, anti-CD8, anti-CD4, anti-CD3, anti-CD69, anti-PD1, anti-CD25, anti-CD62L, anti-CD44, anti-F4/80, anti-CD11C, anti-CD11b, anti-Ly6G, ant-Ly6C and Live/Dead near IR viability dye). CM (central memory): CD62L+CD44+, EM (Effector memory) CD62L-CD44+. Mice survival was assessed using Kaplan-Meier survival test.

The next test has as its system CT26-G12C tumors. Put plainly: Single cell RNA sequencing of CT26-G12C tumors. In kind it is in vivo, mouse. The source says:
UMAP projections were generated from scRNA-seq data and used for visualization. Cell type clusters detected in DAPI-sorted cells from CT26-G12C SC. Tumors (FIG. 4A), or from CT26-G12C in vitro cell line (FIG. 4D) treated with the indicated conditions are shown, with cell % percentage histogram and gene-level expression heat map calculated for each cluster.

In a further test the test system is HCC44-PSCA. Put plainly: HCC44-PSCA SC tumors in NSG mice with IV CAR-T transfer (human T cell ACT mouse model). In kind it is in vivo. The method, then:
Inoculated in NSG mice and received IV CART transfer with AMG-510 Orla gavage (30 mg/Kg/Mouse for 6 days then sacrificed and tumors were collected and stained with T cells markers, or for 20 days with IP anti-human PD1 Ab (twice a week) for Tumor growth curve.

Turning to `C=CC(=O)N1CCN(c2nc(=O)n(-c3c(C)ccnc3C(C)C)c3nc(-c4c(O)cccc4F)c(F)cc23)[C@@H](C)C1` (atropisomer, axis not shown) [Sotorasib, 6-fluoro-7-(2-fluoro-6-hydroxyphenyl)-(1/W)-1-[4-methyl-2-(propan-2-yl)pyridin-3-yl]-4-[(2S)-2-methyl-4-(prop-2-enoyl)piperazin-1-yl]pyrido[2,3-cf]pyrimidin-2 (1/-/)-one], the “expansion of tumor infiltrating lymphocytes (TILs)” value in test [1] (CT26-G12C heterotrophic mouse model, 30 mg/kg/mouse oral gavage, 6 days) is recorded as “significantly promoted the expansion of tumor infiltrating lymphocytes”; with HCC44-PSCA (human T cell adoptive therapy (ACT) mouse model, 30 mg/Kg/Mouse oral gavage, 6 days), “significantly promoted the expansion of tumor infiltrating lymphocytes”. Moreover, the “mouse survival (Kaplan-Meier)” value in test [1] (combined with anti-PD-1, CT26-G12C model) is given as “prolonging mouse survival”. Moreover, in test [1] (mouse tumor models), the “tumor microenvironment / T cell effector phenotype” value is given as “strikingly augmented T cell effector phenotype”. In test [1] (mouse, in vivo, ip), the “control of CT26-G12C tumor growth” value is given as “synergized with anti-PD-1 in controlling CT26-G12C tumor growth”. Moreover, the “immuno-active and growth-active tumor clusters (scRNA-seq, cell % per cluster)” value in the test with CT26-G12C tumors (CT26-G12C SC tumors and in vitro cell line) is “enriches the immuno-active and diminishes growth-active tumor clusters”. The “tumor clusters by top upregulated pathways (scRNA-seq)” value in the test on CT26-G12C tumors (Sotorasib-treated CT26-G12C tumors) was “enrichment of tumor clusters with TNFα and IFNγ as top upregulated pathways”. Moreover, the “anti-tumor effect of CAR-T adoptive cell transfer and anti-PD1” value in the test on HCC44-PSCA (combined with CAR-T adoptive cell transfer and anti-PD1 treatment) is “enhanced their anti-tumor effect”.
